Data set [1] is described as follows: The drug is tested on Collinsella intestinalis strain: DSM13280 for biotransformation. The drug concentrations were measured before and after a 12-h incubation by liquid-chromatography-coupled mass spectrometry (LC–MS). The conditions noted are these: 2 µM.
The nature of data set [2]: The drug is tested on Bacteroides caccae strain: ATCC43185 for biotransformation. The drug concentrations were measured before and after a 12-h incubation by liquid-chromatography-coupled mass spectrometry (LC–MS). To be noted: 2 µM.
The nature of data set [3]: The drug is tested on Bacteroides cellulosilyticus strain: DSM14838 for biotransformation. The drug concentrations were measured before and after a 12-h incubation by liquid-chromatography-coupled mass spectrometry (LC–MS). To be noted: 2 µM.
Data set [4] is described as follows: The drug is tested on Bacteroides fragilis strain: ATCC43859 for biotransformation. The drug concentrations were measured before and after a 12-h incubation by liquid-chromatography-coupled mass spectrometry (LC–MS). The conditions noted are these: 2 µM.
Data set [5] is described as follows: The drug is tested on Parabacteroides merdae strain: ATCC43184 for biotransformation. The drug concentrations were measured before and after a 12-h incubation by liquid-chromatography-coupled mass spectrometry (LC–MS). To be noted: 2 µM.
Data set [6] in a line: The drug is tested on Anaerococcus hydrogenalis strain: DSM7454 for biotransformation. The drug concentrations were measured before and after a 12-h incubation by liquid-chromatography-coupled mass spectrometry (LC–MS). The conditions noted are these: 2 µM.
The nature of data set [7]: The drug is tested on Blautia luti strain: DSM14534 for biotransformation. The drug concentrations were measured before and after a 12-h incubation by liquid-chromatography-coupled mass spectrometry (LC–MS). Format: ADME. More on the design: dose 2 uM, timepoint 0 vs 12 hours. To be noted: 2 µM.
Data set [8] can be described thus: The drug is tested on Clostridium sp. strain: fecal isolate for biotransformation. The drug concentrations were measured before and after a 12-h incubation by liquid-chromatography-coupled mass spectrometry (LC–MS). To be noted: 2 µM.
Data set [9] can be described thus: The drug is tested on Clostridium scindens strain: ATCC35704 for biotransformation. The drug concentrations were measured before and after a 12-h incubation by liquid-chromatography-coupled mass spectrometry (LC–MS). The conditions noted are these: 2 µM.
The nature of data set [10]: The drug is tested on Ruminococcus gnavus strain: ATCC29149 for biotransformation. The drug concentrations were measured before and after a 12-h incubation by liquid-chromatography-coupled mass spectrometry (LC–MS). To be noted: mediterraneibacter gnavus, 2 µM.
Data set [11] in a line: The drug is tested on Subdoligranulum variabile strain: DSM15176 for biotransformation. The drug concentrations were measured before and after a 12-h incubation by liquid-chromatography-coupled mass spectrometry (LC–MS). To be noted: 2 µM.
Data set [12] in a line: The drug is tested on Edwardsiella tarda strain: ATCC23685 for biotransformation. The drug concentrations were measured before and after a 12-h incubation by liquid-chromatography-coupled mass spectrometry (LC–MS). To be noted: 2 µM.
Data set [13] can be described thus: The drug is tested on Enterobacter cancerogenus strain: ATCC35316 for biotransformation. The drug concentrations were measured before and after a 12-h incubation by liquid-chromatography-coupled mass spectrometry (LC–MS). To be noted: 2 µM.
Data set [14] is described as follows: The drug is tested on Providencia rettgeri strain: DSM1131 for biotransformation. The drug concentrations were measured before and after a 12-h incubation by liquid-chromatography-coupled mass spectrometry (LC–MS). Format: ADME. More on the design: dose 2 uM, timepoint 0 vs 12 hours. To be noted: 2 µM.
The conditions of data set [15]: bacteroides stercoris, 12 h, 2 µM.
Description: The drug is tested on Bacteroides stercoris strain: ATCC43183 for biotransformation. The drug concentrations were measured before and after a 12-h incubation by liquid-chromatography-coupled mass spectrometry (LC–MS)
For data set [16] the following is noted: bacteroides thetaiotaomicron, 12 h, 2 µM.
Description: The drug is tested on Bacteroides thetaiotaomicron strain: 3731 for biotransformation. The drug concentrations were measured before and after a 12-h incubation by liquid-chromatography-coupled mass spectrometry (LC–MS)
The conditions of data set [17]: parabacteroides distasonis, 12 h, 2 µM.
Description: The drug is tested on Parabacteroides distasonis strain: ATCC8503 for biotransformation. The drug concentrations were measured before and after a 12-h incubation by liquid-chromatography-coupled mass spectrometry (LC–MS)
The nature of data set [18]: The drug is tested on Bacteroides finegoldii strain: DSM17565 for biotransformation. The drug concentrations were measured before and after a 12-h incubation by liquid-chromatography-coupled mass spectrometry (LC–MS). To be noted: 2 µM.
Data set [19] is described as follows: The drug is tested on Anaerotruncus colihominis strain: DSM17241 for biotransformation. The drug concentrations were measured before and after a 12-h incubation by liquid-chromatography-coupled mass spectrometry (LC–MS). To be noted: 2 µM.
The nature of data set [20]: The drug is tested on Clostridium sporogenes strain: ATCC15579 for biotransformation. The drug concentrations were measured before and after a 12-h incubation by liquid-chromatography-coupled mass spectrometry (LC–MS). To be noted: 2 µM.

With `CCOC(=O)[C@H](CCc1ccccc1)N[C@@H](C)C(=O)N1Cc2ccccc2C[C@H]1C(=O)O`, the “Bacterial Biotransformation” value in data set [1] is on record as “Compound metabolized”; in data set [2], “Compound metabolized”; in data set [3], “Compound metabolized”; in data set [4] it was “Compound metabolized”; in data set [5], “Compound NOT metabolized”; in [6], “Compound NOT metabolized”. Further, the “Bacterial Biotransformation” value in [7] is “Compound NOT metabolized”; in [8] it was “Compound metabolized”; in data set [9], “Compound NOT metabolized”; in [10], “Compound NOT metabolized”; in [11] it was “Compound metabolized”; in [12] it was “Compound NOT metabolized”. In addition, the “Bacterial Biotransformation” value was “Compound NOT metabolized” in data set [13]; “Compound NOT metabolized” in data set [14]; “Compound metabolized” in data set [15]; “Compound metabolized” in data set [16]; “Compound metabolized” in data set [17].

As for `CC(C)C[C@H]1C(=O)N2CCC[C@H]2[C@]2(O)O[C@](NC(=O)[C@@H]3C=C4c5cccc6[nH]c(Br)c(c56)C[C@H]4N(C)C3)(C(C)C)C(=O)N12.CS(=O)(=O)O` [BROMOCRIPTINE MESYLATE], the “Bacterial Biotransformation” value in [1], in [2], in data set [3], in data set [18], in [5] and in data set [6] was “Compound metabolized” each time. For the same molecule, the “Bacterial Biotransformation” value in data set [19], in data set [7], in data set [8], in data set [9], in data set [20] and in data set [10] was “Compound metabolized” each time. In addition, the “Bacterial Biotransformation” value in data set [11], in data set [12], in data set [13], in [14], in data set [15] and in data set [16] was “Compound metabolized” each time. For the same molecule, in [17], the “Bacterial Biotransformation” value is reported as “Compound metabolized”.

Turning to `O=C(O)COCCN1CCN(C(c2ccccc2)c2ccc(Cl)cc2)CC1` (configuration not stated) [CETIRIZINE], the “Bacterial Biotransformation” value in data set [2] is “Compound NOT metabolized”; in [3], “Compound metabolized”; in [18], “Compound metabolized”; in data set [4], “Compound metabolized”; in data set [5], “Compound NOT metabolized”; in data set [6], “Compound NOT metabolized”. Besides, the “Bacterial Biotransformation” value in data set [19] is on record as “Compound NOT metabolized”; in data set [7], “Compound NOT metabolized”; in data set [9], “Compound NOT metabolized”; in data set [20], “Compound NOT metabolized”; in data set [10] it was “Compound NOT metabolized”; in [11], “Compound metabolized”. In addition, the “Bacterial Biotransformation” value is listed as “Compound NOT metabolized” in data set [12]; “Compound NOT metabolized” in [13]; “Compound metabolized” in [15]; “Compound metabolized” in data set [16]; “Compound metabolized” in [17].

Consider `CCCc1nc(C(C)(C)O)c(C(=O)OCc2oc(=O)oc2C)n1Cc1ccc(-c2ccccc2-c2nnn[nH]2)cc1` [OLMESARTAN MEDOXOMIL], for which the “Bacterial Biotransformation” value in data set [2], in data set [3], in data set [18], in data set [4], in [5] and in [6] was “Compound metabolized” each time. In addition, the “Bacterial Biotransformation” value in [19] was “Compound metabolized”; in [8], “Compound metabolized”; in [9], “Compound metabolized”; in data set [10] it was “Compound NOT metabolized”; in data set [11], “Compound metabolized”; in [12], “Compound metabolized”. Moreover, the “Bacterial Biotransformation” value in [13], in data set [15] and in data set [17] was “Compound metabolized” in each case.

On to `Cc1nc2n(c(=O)c1CCN1CCC(c3noc4cc(F)ccc34)CC1)CCCC2O` (configuration not stated) [PALIPERIDONE], for which the “Bacterial Biotransformation” value in data set [1] is “Compound NOT metabolized”; in [2], “Compound metabolized”; in [3], “Compound metabolized”; in data set [18] it was “Compound metabolized”; in data set [5], “Compound metabolized”; in data set [6], “Compound metabolized”. For the same molecule, the “Bacterial Biotransformation” value in data set [19], in data set [7], in data set [8], in data set [9], in [20] and in data set [10] was “Compound metabolized” in each case. Besides, the “Bacterial Biotransformation” value in [11], in data set [12], in data set [13], in [14], in data set [15] and in [16] was “Compound metabolized” each time. Also, the “Bacterial Biotransformation” value in data set [17] was “Compound metabolized”.

Take `CC(=O)OCC(=O)NCCCOc1cccc(CN2CCCCC2)c1` [ROXATIDINE ACETATE]: the “Bacterial Biotransformation” value in data set [1], in [2], in data set [3], in [18], in data set [4] and in data set [5] was “Compound metabolized” throughout. Besides, the “Bacterial Biotransformation” value in [6] is listed as “Compound metabolized”; in data set [19], “Compound metabolized”; in data set [7], “Compound metabolized”; in [9], “Compound metabolized”; in data set [10], “Compound NOT metabolized”; in [11] it was “Compound metabolized”. In addition, the “Bacterial Biotransformation” value in [12], in data set [13], in data set [14], in [15], in data set [16] and in data set [17] was “Compound metabolized” each time.

With `CN1CCN(CC/C=C2/c3ccccc3Sc3ccc(S(=O)(=O)N(C)C)cc32)CC1` [THIOTHIXENE], the “Bacterial Biotransformation” value is on record as “Compound NOT metabolized” in data set [1]; “Compound NOT metabolized” in [2]; “Compound metabolized” in data set [3]; “Compound NOT metabolized” in data set [4]; “Compound NOT metabolized” in data set [5]; “Compound metabolized” in data set [6]. The “Bacterial Biotransformation” value is recorded as “Compound NOT metabolized” in data set [19]; “Compound NOT metabolized” in data set [7]; “Compound metabolized” in data set [8]; “Compound metabolized” in [9]; “Compound NOT metabolized” in data set [10]; “Compound NOT metabolized” in data set [11]. Also, the “Bacterial Biotransformation” value in data set [12] is on record as “Compound metabolized”; in data set [13] it was “Compound metabolized”; in data set [15], “Compound metabolized”; in data set [16] it was “Compound NOT metabolized”; in [17], “Compound metabolized”.

The values are drawn from ChEMBL document CHEMBL5303573, “Mapping human microbiome drug metabolism by gut bacteria and their genes” (Nature, 2019).
